Reference: US11083725B2 (priority 2014, dated 2021)

Test system: NHBE cells
Assay: Biolog metabolic array: substrate use by NHBE cells with or without CA09 infection
Format: cell-based, human
Conditions: for Substrate use, 590 nm absorbance normalized to zero hour, 0 hr: Biolog PMM2, 0 hr; for Substrate use, 590 nm absorbance normalized to zero hour, 1 hr: Biolog PMM2, 1 hr; for Substrate use, 590 nm absorbance normalized to zero hour, 5 hr: Biolog PMM2, 5 hr; for Substrate use, 590 nm absorbance normalized to zero hour, 7 hr: Biolog PMM2, 7 hr
[1] = Control (uninfected) NHBE cells
[2] = Virus (CA09, MOI 1) infected NHBE cells
[3] = Virus (CA09-infected, MOI 1) NHBE cells

| SMILES | 590 nm absorbance normalized to zero hour (substrate use), 1 hr [1] | 590 nm absorbance normalized to zero hour (substrate use), 2 hr [1] | 590 nm absorbance normalized to zero hour (substrate use), 3 hr [1] | 590 nm absorbance normalized to zero hour (substrate use), 4 hr [1] | 590 nm absorbance normalized to zero hour (substrate use), 6 hr [1] | 590 nm absorbance normalized to zero hour (substrate use), 8 hr [1] | 590 nm absorbance normalized to zero hour (substrate use), 9 hr [1] | 590 nm absorbance normalized to zero hour (substrate use), 10 hr [1] | 590 nm absorbance normalized to zero hour (substrate use), 11 hr [1] | Substrate use, 590 nm absorbance normalized to zero hour, 1 hr [1] | Substrate use, 590 nm absorbance normalized to zero hour, 5 hr [1] | Substrate use, 590 nm absorbance normalized to zero hour, 7 hr [1] | Substrate use, 590 nm absorbance normalized to zero hour, 1 hr [2] | Substrate use, 590 nm absorbance normalized to zero hour, 5 hr [2] | Substrate use, 590 nm absorbance normalized to zero hour, 7 hr [2] | 590 nm absorbance normalized to zero hour (substrate use), 1 hr [3] | 590 nm absorbance normalized to zero hour (substrate use), 2 hr [3] | 590 nm absorbance normalized to zero hour (substrate use), 3 hr [3] | 590 nm absorbance normalized to zero hour (substrate use), 4 hr [3] | 590 nm absorbance normalized to zero hour (substrate use), 6 hr [3] | other results |
| --- | --- | --- | --- | --- | --- | --- | --- | --- | --- | --- | --- | --- | --- | --- | --- | --- | --- | --- | --- | --- | --- |
| O=P(O)(O)O[C@H]1O[C@H](CO)[C@@H](O)[C@H](O)[C@H]1O [D-Glucose-1-Phosphate] | 1.01 | 1.31 | 1.24 | 1.16 | 0.33 | 1.03 | 1.09 | 1.06 | 0.93 | 1.01 | 1.12 | 1.10 | 1.74 | 3.94 | 4.56 | 1.74 | 2.39 | 2.86 | 3.20 | 4.34 | 590 nm absorbance normalized to zero hour (substrate use), 0 hr [1]: 1.00; Substrate use, 590 nm absorbance normalized to zero hour, 0 hr [1]: 1.00; Substrate use, 590 nm absorbance normalized to zero hour, 0 hr [2]: 1.00; 590 nm absorbance normalized to zero hour (substrate use), 0 hr [3]: 1.00; 590 nm absorbance normalized to zero hour (substrate use), 8 hr [3]: 4.91; 590 nm absorbance normalized to zero hour (substrate use), 9 hr [3]: 5.77; 590 nm absorbance normalized to zero hour (substrate use), 10 hr [3]: 5.49; 590 nm absorbance normalized to zero hour (substrate use), 11 hr [3]: 6.50 |
| O=C[C@H](O)[C@@H](O)[C@H](O)[C@H](O)COP(=O)(O)O [D-Glucose-6-Phosphate] | 1.14 | 1.18 | 3.24 | 1.30 | 0.74 | 1.28 | 1.38 | 2.69 | 1.87 | 1.14 | 1.48 | 2.93 | 2.01 | 4.92 | 5.87 | 2.01 | 3.00 | 3.61 | 4.04 | 5.47 | 590 nm absorbance normalized to zero hour (substrate use), 8 hr [3]: 6.35; 590 nm absorbance normalized to zero hour (substrate use), 9 hr [3]: 7.41; 590 nm absorbance normalized to zero hour (substrate use), 10 hr [3]: 7.21; 590 nm absorbance normalized to zero hour (substrate use), 11 hr [3]: 5.87 |
